Experimental data as given in patent publication EP0408371B1, “Hemoregulatory peptides” (SMITHKLINE BEECHAM CORPORATION, priority 1989, dated 1994).
Where two headings read alike, the source gives them in different places. Square brackets hold non-standard residues; d marks the D form. Ends that are not written are not given here. pGlu = O=C1CC[C@@H](C(=O)O)N1

Experiments:
[1] = system: murine myelopoietic cells; settings: in vivo; cited from earlier work
[2] = system: murine CFU-gm; settings: murine CFU-gm in vitro; cited from earlier work
[3] = system: human CFU-gm; settings: human CFU-gm in vitro; cited from earlier work
[4] = system: human bone marrow stromal cell line, C6; assay: Induction of colony stimulating activity by stromal cells; supernatant tested in soft agar assay (CFU-C); format: cell-based; settings: 5% Supernatant, Lewis rat bone marrow cells
Method: The human bone marrow stromal cell line, C6, is grown to confluency in plastic tissue culture dishes in RPMI-1640 medium and 5% FBS. On the day prior to the experiment this medium is changed to DMEM without added serum. To these cultures, the compounds are added for one hour, then washed from the cultures. The medium is replaced with fresh DMEM and the cells are incubated for 24 hours at 37°C, 5% CO₂. After 24 hours the C6 cell culture supernatant is collected, sterile filtered, and frozen until it can be assayed for the presence of hematopoietic colony stimulating activity (CSA) as set forth below.
Bone marrow cells are obtained from Lewis rats. They are adjusted to 10⁶ cells/ml in DMEM without serum. A single later agar system utilizing the following is used: DMEM enriched with nutrients (NaHCO₃, pyruvate, amino acids, vitamins, and HEPES buffer); 0.3% Bacto agar, and 20% Lewis rat serum. To this are added dilutions of C6 cell line supernatant (10-2.5%) from above along with rat bone marrow cells (final concentration = 10⁵ cells/ml). The agar plates are incubated at 37°C, 5% CO₂ for 7-8 days. Colonies of proliferating bone marrow cells (CFU-C) are counted utilizing a microscope. The number of agar colonies counted is proportional to the amount of CSA present within the C6 bone marrow stromal cell line supernatant.

[5] = system: myelopoietic cells; settings: in vivo; cited from earlier work
[6] = system: myelopoietic cells; settings: in vitro; cited from earlier work

HP-5: oxidation product of pGlu-Glu-Asp-Cys-Lys, a dimer formed by disulfide bridges (EP-A-0267741) ([pGlu]EDCK; also: disulfide-linked dimer (oxidation product))
effect on murine myelopoietic cells [1]: up regulates murine myelopoietic cells | colony formation of CFU-gm [2]: strongly stimulates colony formation | colony formation of CFU-gm [3]: strongly stimulates colony formation

(pGlu-Glu-Asp)₂-Sub-(Lys)₂ [Example 2]
Hematopoietic Colony Stimulating Activity, Percent of Control ([4]; Dose 0.01 ng/ml): 97% of Control | Hematopoietic Colony Stimulating Activity, Percent of Control ([4]; Dose 0.1 ng/ml): 154% of Control | Hematopoietic Colony Stimulating Activity, Percent of Control ([4]; Dose 1 ng/ml): 188% of Control | Hematopoietic Colony Stimulating Activity, Percent of Control ([4]; Dose 10 ng/ml): 207% of Control | Hematopoietic Colony Stimulating Activity, Percent of Control ([4]; Dose 100 ng/ml): 241% of Control | Hematopoietic Colony Stimulating Activity, Percent of Control ([4]; Dose 1000 ng/ml): 192% of Control

pGlu-Glu-Asp-Cys-Lys ([pGlu]EDCK)
effect on myelopoietic cells [5]: selective inhibitory effect | effect on myelopoietic cells [6]: selective inhibitory effect
